{
  "source": "patent US9200008B2",
  "about": "(ASKA PHARMACEUTICAL CO., LTD., priority 2010, dated 2015)",
  "data": [
    {"tested_on": "Human prostate cancer cell lines (PC-3 cells)", "test": "Measurement of cell death-inducing activity (Test Example 1)", "type": "cell-based", "details": "PC-3, 48 h, 48 hours after addition, tested at 10, 1, 0.1, 0.025 and 0.00625 μmol/L, qualitative evaluation of 10 fields, read-out: Concentration showing the cell death-inducing activity (cell death-inducing rate not less than 40%)", "experimental": "The cell death-inducing activity of the compound represented by the formula (1) or the salt thereof was measured as follows.\nHuman prostate cancer cell lines (PC-3 cells) were seeded to 6-well plates at 1×10^5 cells/2 mL/well, and cultured in the presence of 5% CO2 at 37° C. for 48 hours. Thereafter, each compound was added thereto so as to provide 10, 1, 0.1, 0.025 and 0.00625 μmol/L. As a control, DMSO was added. After the addition, the cells were continuously cultured for 48 hours. […] When the cell death-inducing rate was not less than 40%, the compound was judged to have the cell death-inducing activity.", "units": {"minimal effective concentration": "µM"}, "values": [
      {"molecule": "Cc1nc(-c2ccc(F)cc2Cl)sc1NC(=O)OCc1ccc2nn(C)cc2c1", "note": "[Example 9-148]", "minimal effective concentration": 1},
      {"molecule": "Cc1cc(F)ccc1-c1nc(C)c(NC(=O)OCc2ccc3nn(C)cc3c2)s1", "note": "[Example 9-149]", "minimal effective concentration": 1},
      {"molecule": "Cc1cc(Cl)ccc1-c1nc(C)c(NC(=O)OCc2ccc3nn(C)cc3c2)s1", "note": "[Example 9-150]", "minimal effective concentration": 0.025},
      {"molecule": "CCc1ccccc1-c1nc(C)c(NC(=O)OCc2ccc3nn(CC)cc3c2)s1", "note": "[Example 9-151]", "minimal effective concentration": 1},
      {"molecule": "CCn1cc2cc(COC(=O)Nc3sc(-c4ccccc4OC)nc3C)ccc2n1", "note": "[Example 9-152]", "minimal effective concentration": 0.1},
      {"molecule": "CCn1cc2cc(COC(=O)Nc3sc(-c4ccc(F)cc4OC)nc3C)ccc2n1", "note": "[Example 9-153]", "minimal effective concentration": 0.025},
      {"molecule": "CCn1cc2cc(COC(=O)Nc3sc(-c4ccc(Cl)cc4OC)nc3C)ccc2n1", "note": "[Example 9-154]", "minimal effective concentration": 0.025},
      {"molecule": "CCn1cc2cc(COC(=O)Nc3sc(-c4ccc(OC)cc4OC)nc3C)ccc2n1", "note": "[Example 9-156]", "minimal effective concentration": 0.1},
      {"molecule": "CCn1cc2cc(COC(=O)Nc3sc(-c4ccc(C)cc4C)nc3C)ccc2n1", "note": "[Example 9-157]", "minimal effective concentration": 0.1},
      {"molecule": "CCn1cc2cc(COC(=O)Nc3sc(-c4ccc(F)cc4C)nc3C)ccc2n1", "note": "[Example 9-158]", "minimal effective concentration": 1},
      {"molecule": "CCc1nc(-c2ccc(Cl)cc2OC)sc1NC(=O)OCc1ccc2c(c1)nnn2CC", "note": "[Example 9-160]", "minimal effective concentration": 0.025},
      {"molecule": "CCc1nc(-c2ccccc2OC)sc1NC(=O)OCc1ccc2c(c1)ncn2C", "note": "[Example 9-161]", "minimal effective concentration": 0.025},
      {"molecule": "CCc1nc(-c2ccccc2OC)sc1NC(=O)OCc1ccc2c(c1)ncn2CC", "note": "[Example 9-162]", "minimal effective concentration": 0.1},
      {"molecule": "CCc1nc(-c2ccc(F)cc2C)sc1NC(=O)OCc1ccc2c(c1)ncn2C", "note": "[Example 9-163]", "minimal effective concentration": 0.025},
      {"molecule": "CCc1nc(-c2ccc(Cl)cc2OC)sc1NC(=O)OCc1ccc2c(c1)ncn2CC", "note": "[Example 9-164]", "minimal effective concentration": 0.025},
      {"molecule": "CCc1nc(-c2ccc(C)cc2OC)sc1NC(=O)OCc1ccc2c(c1)ncn2CC", "note": "[Example 9-165]", "minimal effective concentration": 0.00625},
      {"molecule": "CCc1nc(-c2ccc(C)cc2C)sc1NC(=O)OCc1ccc2c(c1)ncn2CC", "note": "[Example 9-166]", "minimal effective concentration": 0.025},
      {"molecule": "CCc1nc(-c2ccc(F)cc2C)sc1NC(=O)OCc1ccc2c(c1)ncn2CC", "note": "[Example 9-167]", "minimal effective concentration": 0.025},
      {"molecule": "CCc1nc(-c2ccccc2OC)sc1NC(=O)OCc1ccc2c(c1)nc1n2CCOC1", "note": "[Example 9-168]", "minimal effective concentration": 0.1},
      {"molecule": "CCc1nc(-c2ccc(Cl)cc2OC)sc1NC(=O)OCc1ccc2c(c1)nc1n2CCOC1", "note": "[Example 9-169]", "minimal effective concentration": 0.00625},
      {"molecule": "CCc1nc(-c2ccc(Cl)cc2OC)sc1NC(=O)OCc1ccc2c(c1)nc1n2CCC1", "note": "[Example 9-170]", "minimal effective concentration": 0.025},
      {"molecule": "CCc1nc(-c2ccc(C)cc2OC)sc1NC(=O)OCc1ccc2c(c1)nc1n2CCC1", "note": "[Example 9-171]", "minimal effective concentration": 0.025},
      {"molecule": "CCc1nc(-c2ccc(Cl)cc2OC)sc1NC(=O)OCc1ccc2c(c1)nc1n2CCCC1", "note": "[Example 9-172]", "minimal effective concentration": 0.025},
      {"molecule": "CCc1nc(-c2ccc(Cl)cc2OC)sc1NC(=O)OCc1ccc2c(cnn2CC)c1", "note": "[Example 9-173]", "minimal effective concentration": 0.025},
      {"molecule": "CCc1nc(-c2ccc(C)cc2OC)sc1NC(=O)OCc1ccc2c(cnn2CC)c1", "note": "[Example 9-174]", "minimal effective concentration": 0.025},
      {"molecule": "CCc1nc(-c2ccc(C)cc2C)sc1NC(=O)OCc1ccc2c(cnn2CC)c1", "note": "[Example 9-175]", "minimal effective concentration": 0.1},
      {"molecule": "CCc1nc(-c2ccc(Cl)cc2OC)sc1NC(=O)OCc1ccc2nn(CC)cc2c1", "note": "[Example 9-176]", "minimal effective concentration": 0.025},
      {"molecule": "CCn1cnc2cc(COC(=O)Nc3cnc(-c4ccc(Cl)cc4OC)s3)ccc21", "note": "[Example 9-177]", "minimal effective concentration": 0.1},
      {"molecule": "COc1ccccc1-c1ncc(NC(=O)OCc2ccc3c(c2)ncn3C)s1", "note": "[Example 9-178]", "minimal effective concentration": 10},
      {"molecule": "CCn1ncc2cc(COC(=O)Nc3cnc(-c4ccccc4OC)s3)ccc21", "note": "[Example 9-179]", "minimal effective concentration": 10},
      {"molecule": "CCc1nc(-c2ccc(Cl)cc2OC)sc1NC(=O)OCc1ccc2c(c1)ncn2C", "note": "[Example 9-181]", "minimal effective concentration": 0.00625},
      {"molecule": "CCc1nc(-c2ccc(C)cc2C)sc1NC(=O)OCc1ccc2c(c1)ncn2C", "note": "[Example 9-182]", "minimal effective concentration": 0.025},
      {"molecule": "CCCc1nc(-c2ccc(Cl)cc2OC)sc1NC(=O)OCc1ccc2c(c1)ncn2C", "note": "[Example 9-183]", "minimal effective concentration": 1},
      {"molecule": "CCCc1nc(-c2ccc(C)cc2C)sc1NC(=O)OCc1ccc2c(c1)ncn2C", "note": "[Example 9-184]", "minimal effective concentration": 1},
      {"molecule": "Cc1ccc(-c2nc(C3CC3)c(NC(=O)OCc3ccc4c(c3)ncn4C)s2)c(C)c1", "note": "[Example 9-185]", "minimal effective concentration": 0.1},
      {"molecule": "Cc1cc(Cl)ccc1-c1nc(C(F)(F)F)c(NC(=O)OCc2ccc3c(c2)ncn3C)s1", "note": "[Example 9-186]", "minimal effective concentration": 1},
      {"molecule": "Cc1nc(-c2cccs2)sc1NC(=O)OCc1ccc2c(c1)ncn2C", "note": "[Example 9-191]", "minimal effective concentration": 10},
      {"molecule": "Cc1nc(-c2sccc2Cl)sc1NC(=O)OCc1ccc2c(c1)ncn2C", "note": "[Example 9-192]", "minimal effective concentration": 1},
      {"molecule": "Cc1nc(-c2ccc(Cl)s2)sc1NC(=O)OCc1ccc2c(c1)ncn2C", "note": "[Example 9-193]", "minimal effective concentration": 1},
      {"molecule": "Cc1cccnc1-c1nc(C)c(NC(=O)OCc2ccc3c(c2)ncn3C)s1", "note": "[Example 9-195]", "minimal effective concentration": 10},
      {"molecule": "CCn1cnc2cc(COC(=O)Nc3sc(-c4ncccc4C)nc3C)ccc21", "note": "[Example 9-196]", "minimal effective concentration": 10},
      {"molecule": "COc1cc(Cl)ccc1-c1nc(C)c(NC(=O)OCc2ccc3nc(C)c(C)nc3c2)s1", "note": "[Example 9-200]", "minimal effective concentration": 1},
      {"molecule": "Cn1nc(-c2ccccc2)cc1NC(=O)OCc1ccc2c(c1)ncn2C", "note": "[Example 9-204]", "minimal effective concentration": 10},
      {"molecule": "Cc1ccccc1-c1cc(NC(=O)OCc2ccc3c(c2)ncn3C)n(C)n1", "note": "[Example 9-205]", "minimal effective concentration": 1},
      {"molecule": "Cn1nc(-c2ccc(Cl)cc2Cl)cc1NC(=O)OCc1ccc2c(c1)ncn2C", "note": "[Example 9-207]", "minimal effective concentration": 0.025},
      {"molecule": "CCn1nc(-c2ccc(Cl)cc2Cl)cc1NC(=O)OCc1ccc2c(c1)ncn2C", "note": "[Example 9-208]", "minimal effective concentration": 0.025},
      {"molecule": "CCn1cnc2cc(COC(=O)Nc3cc(-c4ccc(Cl)cc4Cl)nn3C)ccc21", "note": "[Example 9-209]", "minimal effective concentration": 0.025},
      {"molecule": "CCn1nc(-c2ccc(Cl)cc2Cl)cc1NC(=O)OCc1ccc2c(c1)ncn2CC", "note": "[Example 9-210]", "minimal effective concentration": 0.1},
      {"molecule": "CCn1nc(-c2ccc(Cl)c(Cl)c2)cc1NC(=O)OCc1ccc2c(c1)ncn2C", "note": "[Example 9-211]", "minimal effective concentration": 10},
      {"molecule": "CCn1cnc2cc(COC(=O)Nc3cc(-c4ccccc4C(F)(F)F)nn3C)ccc21", "note": "[Example 9-212]", "minimal effective concentration": 10},
      {"molecule": "COc1ccccc1-c1cc(NC(=O)OCc2ccc3c(c2)ncn3C)n(C)n1", "note": "[Example 9-213]", "minimal effective concentration": 0.025},
      {"molecule": "CCn1nc(-c2ccccc2OC)cc1NC(=O)OCc1ccc2c(c1)ncn2C", "note": "[Example 9-214]", "minimal effective concentration": 0.1},
      {"molecule": "CCn1cnc2cc(COC(=O)Nc3cc(-c4ccccc4OC)nn3C)ccc21", "note": "[Example 9-215]", "minimal effective concentration": 0.1},
      {"molecule": "CCn1nc(-c2ccccc2OC)cc1NC(=O)OCc1ccc2c(c1)ncn2CC", "note": "[Example 9-216]", "minimal effective concentration": 1},
      {"molecule": "COc1cc(F)ccc1-c1cc(NC(=O)OCc2ccc3c(c2)ncn3C)n(C)n1", "note": "[Example 9-217]", "minimal effective concentration": 0.025}
    ]}
  ]
}
